Reference: patent US10653680B2, “Treatment of impulsivity-related disorders” (OXFORD UNIVERSITY INNOVATION LIMITED, priority 2016, dated 2020)

Columns and labels:
healthy participants = test: Cambridge Gambling Task (CGT); format: in vivo, human
Procedure: Twenty healthy participants (7 females, 13 males; mean age 25.1 years, range 20-38 years; mean BMI 22.7 kg/m^2, range 18.7-30.0 kg/m^2) were included in the study after giving full informed written consent.
Ebselen capsules and identical matching placebo (containing microcrystalline cellulose) were purchased from Shasun Pharmaceuticals Ltd. Participants were tested twice (seven days apart) receiving on one occasion ebselen and, on the other, placebo in a randomised, double-blind, cross-over design. Ebselen was administered in 6×200 mg capsules in three doses given over two days. The order of receiving either the ebselen or the placebo was randomised.
On the day before cognitive testing, participants took the first dose at 1 pm and the second dose at 10 pm. The final dose was taken around 3 hrs prior to cognitive testing. Participants were sent text message reminders a few minutes before they were due to take medication, and were asked to confirm receipt of the messages. The cognitive tasks were carried out immediately after a magnetic resonance spectroscopy study.
The Cambridge Gambling Task (CGT) from the Cambridge Neuropsychological Test Automated Battery (CANTAB, version 3.0.0, Cambridge Cognition Ltd., Cambridge, UK) (Rogers et al.; Neuropsychopharmacology, 1999, 20, 322-333; Clark et al.; Brain, 2008, 131, 1311-1322) assesses decision-making and risk-taking behaviour outside a learning context. In each trial, participants are shown ten boxes at the top of the screen, with some boxes being red and some being blue. The ratio of red to blue boxes varies from 9:1; 8:2; 7:3; 6:4; 5:5 and vice versa in a pseudo-random order.
Participants are informed that a yellow token is hidden inside one of the boxes and asked to indicate the colour box in which the token is most likely to be hidden, by pressing the colour (RED or BLUE) in a response panel at the bottom of the screen. Following their response, the participants indicate confidence in their selection by betting a proportion of points they are allocated (starting with 100 points). […] On each trial five bets are offered, and each bet represents a fixed percentage of the current total points score (5, 25, 50, 75 and 95%). Possible bets are presented sequentially in a box on the right of the display and participants touch the box to select the bet. If correct, the bet value is added to their total points on the left of the panel, and if incorrect, it is subtracted from the total points.
Participants are asked to accumulate as many points as possible. […] Participants perform the task in four blocks of two separate conditions, ascending and descending bet value (the condition order is counterbalanced across participants). In the ascending condition, bets increase at 2.5 s time intervals from 5% to 95% until participants make their selection. This means that if a participant bets at the first value presented, then they bet only 5% of their total points, and if they wait for the highest value, they bet 95% of their total points. In the descending condition bets start from 95% and decrease to 5%. Low bets in the ascend condition and high bets in the descend condition reveal an impulsive betting strategy, while high bets in both conditions reveal a risk taking or reward seeking strategy.
From the first stage of the task (selecting the likely colour of the box in which the token is hidden), the outcome measures are deliberation time and quality of decision making. Deliberation time is the mean latency from presentation of coloured boxes to participant selection. Quality of decision making refers to the proportion of trials on which the more likely outcome is chosen. From the gamble stage, the outcome measures are risk taking, risk adjustment and delay aversion. Risk taking refers to the mean proportion of current points that the subject stakes on each gamble when the more likely outcome is selected, and can be regarded as an index of reward seeking or loss aversion. […]

rats [1] = test: 5-CSRTT, stimulant (cocaine)-induced responding; format: in vivo, rats (males; Long Evans)
Procedure: Testing was carried out in Vancouver (Canada) using rats (males; Long Evans from Charles River) which were given at least two weeks to acclimatise to the animal facility. They were housed in pairs on a 12 hour reverse light-dark cycle (lights off at 7 am). In the second week of acclimatisation, rats were handled briefly each day. […] For each task, there was then a habituation session to the operant boxes before training began.
Ebselen, cocaine and 2,5-dimethoxy-4-iodoamphetamine (DOI) were obtained from Sigma Aldrich, and MDL 100,907 was obtained from Tocris. Ebselen was dissolved in 0.5M DMSO and made up to injection volume (8 ml/kg) using 4% cyclodextrin. Cocaine and DOI were dissolved in 0.9% saline. MDL 100,907 was dissolved in 0.9% saline and the pH was adjusted to 6.25 using 1M NaOH and 0.1M HCl.
All data for the cognitive tasks are presented as mean+SEM change from baseline: • performance on drug day−performance on the previous day
In experiments investigating the effect of ebselen on cocaine and DOI, data were analysed with a two-way ANOVA with ebselen and cocaine/DOI as between-subject factors. If an interaction was detected, this was further investigated using simple main effects analysis. All analyses were conducted using SPSS 22 with p<0.05 considered significant.
To assess the effect of ebselen on stimulant-induced responding, ebselen (10 mg/kg) or vehicle was administered 1 hour prior to cocaine (15 mg/kg i.p.), which in turn was administered 10 minutes prior to testing. Treatments were administered using according to a Latin square design. The inter-trial interval for these sessions was 5 seconds. Two rats were excluded from the data due to increasing levels of omissions across all days of this portion of the study. The experiment was repeated using 0.03 mg/kg MDL 100,907 instead of ebselen.

rats [2] = details: in rats; cited from earlier work
humans = details: at pharmaceutically effective dosages; clinical trials for ischemic stroke (Yamaguchi et al); cited from earlier work

O=c1c2ccccc2[se]n1-c1ccccc1 [Ebselen, 2-phenyl-1,2-benzisoselenazol-3(2H)-one]
effect on deliberation time (healthy participants; ebselen vs placebo): no significant effects | effect on quality of decision making (healthy participants; ebselen vs placebo): no significant effects | effect on reward seeking/risk taking (healthy participants; ebselen vs placebo): increase | effect on risk adjustment (healthy participants; ebselen vs placebo): no significant effects | effect on delay aversion (healthy participants; ebselen vs placebo, irrespective of probability of favourable outcome and token ratio): significant decrease | Delay aversion (%), Mean ± SEM (healthy participants; human, ebselen 6x200 mg in three doses over two days, final dose around 3 hrs before testing, vs placebo p = 0.010): 9.0 ± 2.14% | Reward seeking (%), Mean ± SEM (healthy participants; human, same regimen, vs placebo p = 0.046): 63.9 ± 1.45% | Risk adjustment, Mean ± SEM (healthy participants; human, same regimen, vs placebo p = 0.107): 2.1 ± 0.18 | Deliberation time (ms), Mean ± SEM (healthy participants; human, same regimen, vs placebo p = 0.131): 1408 ± 78 ms | Quality of decision making (%), Mean ± SEM (healthy participants; human, same regimen, vs placebo p = 0.155): 99.3 ± 0.3% | any other measure (rats [1]; ebselen 10 mg/kg / cocaine 15 mg/kg experiment): No effects | reversal of the cocaine effect on omissions (rats [1]; ebselen 10 mg/kg before cocaine 15 mg/kg, p=0.463): not reversed | reversal of the cocaine effect on accuracy (rats [1]; ebselen 10 mg/kg before cocaine 15 mg/kg, p=0.969, interaction p=0.278): not reversed | cocaine-induced premature responses (rats [1]; ebselen 10 mg/kg i.p. 1 hour prior to cocaine 15 mg/kg i.p., p=0.023): reduced cocaine-induced premature responses | number of premature responses, ebselen/cocaine vs vehicle/vehicle treatment (rats [1]; ebselen 10 mg/kg, cocaine 15 mg/kg i.p., p=0.909): did not differ | LD50 concentration (rats [2]): greater than 1000 mg/kg | toxicity in humans (humans): sufficiently non-toxic
